Experimental data published in patent US4652638A, “3-O-acyl-4"-deoxydesmycosin derivatives” (Toyo Jozo Kabushiki Kaisha, priority 1983, dated 1987).
Values after ≈ are worked out from the molar mass of the structure shown. Like-named read-outs stand apart in the source and are kept apart here.

How the values were obtained:
Assay in all cases: MIC (minimum inhibitory concentration)
Type in all cases: cell-based
[1] = tested on: Corynebacterium diphtheriae P.Y.8
[2] = tested on: Staphylococcus aureus 0119*
[3] = tested on: Streptococcus pyogenes 1022*
[4] = tested on: Escherichia coli NIHJ-JC2; conditions: NIHJJC2
[5] = tested on: Bacillus subtilis ATCC 6633; conditions: ATCC6633
[6] = tested on: Staphylococcus aureus MS353
[7] = tested on: Streptococcus pyogenes N.Y.5
[8] = tested on: Staphylococcus epidermidis sp-al-1; conditions: SPAL1
Sarcina lutea ATCC 9341 = conditions: Micrococcus luteus, ATCC9341
[9] = tested on: Micrococcus flavus ATCC 10240; conditions: ATCC10240
[10] = tested on: Shigella flexineri type 3a; conditions: TYPE3A
[11] = tested on: Streptococcus agalaactiae 1020
[12] = tested on: Staphylococcus aureus 0127*
Shigella sonnei E33 = tested on: Shigella sonnei E33
Serratia marcescens = tested on: Serratia marcescens
[13] = tested on: Staphylococcus aureus ATCC 6538P; conditions: ATCC6538P
[14] = tested on: Klebsiella pneumoniae ATCC 10031; conditions: ATCC10031
Escherichia coli B = tested on: Escherichia coli B
[15] = tested on: Streptococcus faecalis 1501; conditions: Enterococcus faecalis
Salmonella typhosa H901 = conditions: Salmonella enterica
[16] = tested on: Pseudomonas aeruginosa IAM 1095; conditions: IAM1095
[17] = tested on: Staphylococcus aureus MS353 C36; conditions: MS353C36
[18] = tested on: Salmonella enteritidis Gaertner; conditions: Salmonella enterica
Proteus vulgaris OX19 = tested on: Proteus vulgaris OX19
[19] = tested on: Staphylococcus aureus MS353 A0*; conditions: * clinical isolate, macrolide-resistant bacteria A group
[20] = Streptococcus pyogenes 1022, * clinical isolate, macrolide-resistant bacteria A group, read-out: MIC
[21] = Escherichia coli NIHJ-JC2, read-out: MIC
[22] = Bacillus subtilis ATCC 6633, read-out: MIC
[23] = Staphylococcus epidermidis sp-al-1, read-out: MIC
[24] = Sarcina lutea ATCC 9341, read-out: MIC
[25] = Micrococcus flavus ATCC 10240, read-out: MIC
[26] = Streptococcus agalaactiae 1020, read-out: MIC
[27] = Klebsiella pneumoniae ATCC 10031, read-out: MIC
[28] = Escherichia coli B, read-out: MIC
[29] = Streptococcus faecalis 1501, read-out: MIC
[30] = Pseudomonas aeruginosa IAM 1095, read-out: MIC
[31] = Salmonella enteritidis Gaertner, read-out: MIC
[32] = Salmonella typhosa H901, read-out: MIC

Row | Structure (SMILES) | MIC [4, 21] [µg/mL] | MIC [5, 22] [µg/mL] | MIC [6] [µg/mL] | MIC [7] [µg/mL] | MIC [8, 23] [µg/mL] | MIC (Sarcina lutea ATCC 9341; [24]) [µg/mL] | MIC [9, 25] [µg/mL] | MIC [10] [µg/mL] | MIC [11, 26] [µg/mL] | MIC (Shigella sonnei E33) [µg/mL] | MIC (Serratia marcescens; read-out: MIC) [µg/mL] | MIC [13] [µg/mL] | MIC [14, 27] [µg/mL] | MIC (Escherichia coli B; [28]) [µg/mL] | MIC [15, 29] [µg/mL] | MIC (Salmonella typhosa H901; TYPHOSA) [µg/mL] | MIC [17] [µg/mL] | MIC ([2]; Staphylococcus aureus) [µg/mL] | MIC ([12]; Staphylococcus aureus) [µg/mL] | MIC [19] [µg/mL] | other results
1 | CCCC(=O)OC1CC(=O)OC(CC)C(COC2OC(C)CC(OC)C2OC)C=C(C)C=CC(=O)C(C)CC(CC=O)C(OC2OC(C)C(O)C(N(C)C)C2O)C1C (stereo not drawn) [Example 3, 3-O-butyryl-4"-deoxydesmycosin] | > 100 | 0.1 (≈ 0.121 µM) | 0.4 (≈ 0.484 µM) | ≤ 0.05 | ≤ 0.05 | ≤ 0.05 | ≤ 0.05 | 50 (≈ 60.5 µM) | 0.1 (≈ 0.121 µM) | > 100 | > 100 | 0.4 (≈ 0.484 µM) | 25 (≈ 30.3 µM) | > 100 | 0.2 (≈ 0.242 µM) | > 100 | 0.2 (≈ 0.242 µM) | – | – | – | MIC ([1]; read-out: MIC): ≤ 0.05 µg/mL; MIC ([2]; Staphylococcus aureus 0119, * clinical isolate, macrolide-resistant bacteria A group, read-out: MIC): 25 µg/mL (≈ 30.3 µM); MIC [3, 20]: 12.5 µg/mL (≈ 15.1 µM); MIC ([12]; Staphylococcus aureus 0127, * clinical isolate, macrolide-resistant bacteria A group, read-out: MIC): 25 µg/mL (≈ 30.3 µM); MIC [16, 30]: > 100 µg/mL; MIC [18, 31]: > 100 µg/mL; MIC (Proteus vulgaris OX19; read-out: MIC): 50 µg/mL (≈ 60.5 µM)
2 | CCC1OC(=O)CC(OC(C)=O)C(C)C(OC2OC(C)C(O)C(N(C)C)C2O)C(CC=O)CC(C)C(=O)C=CC(C)=CC1COC1OC(C)CC(OC)C1OC (stereo not drawn) [Example 1, 3-O-acetyl-4"-deoxydesmycosin] | > 100 | 0.2 (≈ 0.251 µM) | 0.2 (≈ 0.251 µM) | ≤ 0.05 | 0.1 (≈ 0.125 µM) | ≤ 0.05 | ≤ 0.05 | 50 (≈ 62.7 µM) | 0.1 (≈ 0.125 µM) | > 100 | > 100 | 0.4 (≈ 0.501 µM) | 25 (≈ 31.3 µM) | > 100 | 0.8 (≈ 1 µM) | > 100 | 0.2 (≈ 0.251 µM) | 100 (≈ 125 µM) | > 100 | > 100 | MIC [3, 20]: 50 µg/mL (≈ 62.7 µM); MIC [16, 30]: > 100 µg/mL; MIC [18, 31]: > 100 µg/mL; MIC (Proteus vulgaris OX19; read-out: MIC): 25 µg/mL (≈ 31.3 µM)
3 | CCC1OC(=O)CC(OC(C)=O)C(C)C(OC2OC(C)C(O)C(N(C)C)C2O)C(C)CC(C)C(=O)C=CC(C)=CC1COC1OC(C)CC(OC)C1OC (stereo not drawn) [Example 7, 3-O-acetyl-19-deformyl-4"-deoxydesmycosin] | > 100 | 0.1 (≈ 0.13 µM) | 0.2 (≈ 0.26 µM) | 0.1 (≈ 0.13 µM) | 0.1 (≈ 0.13 µM) | ≤ 0.05 | ≤ 0.05 | > 100 | 0.8 (≈ 1.04 µM) | > 100 | > 100 | 0.4 (≈ 0.52 µM) | 25 (≈ 32.5 µM) | > 100 | 3.1 (≈ 4.03 µM) | > 100 | 0.2 (≈ 0.26 µM) | > 100 | > 100 | > 100 | MIC ([3]; Streptococcus pyogenes): > 100 µg/mL; MIC [16, 30]: > 100 µg/mL; MIC [18, 31]: > 100 µg/mL; MIC (Proteus vulgaris OX19; read-out: MIC): 100 µg/mL (≈ 130 µM)
4 | CCC1OC(=O)CC(OC(=O)Cc2ccccc2)C(C)C(OC2OC(C)C(O)C(N(C)C)C2O)C(CC=O)CC(C)C(=O)C=CC(C)=CC1COC1OC(C)CC(OC)C1OC (stereo not drawn) [Example 6, 3-O-phenylacetyl-4"-deoxydesmycosin] | – | – | 0.2 (≈ 0.229 µM) | 0.1 (≈ 0.114 µM) | – | – | – | 50 (≈ 57.2 µM) | – | > 100 | – | 0.1 (≈ 0.114 µM) | – | – | – | – | 0.1 (≈ 0.114 µM) | > 100 | > 100 | > 100 | MIC [1]: ≤ 0.05 µg/mL; MIC ([4]; Escherichia coli): > 100 µg/mL; MIC ([5]; Bacillus subtilis): 0.1 µg/mL (≈ 0.114 µM); MIC ([8]; Staphylococcus epidermidis): ≤ 0.05 µg/mL; MIC (Sarcina lutea ATCC 9341): ≤ 0.05 µg/mL; MIC ([9]; Micrococcus flavus): ≤ 0.05 µg/mL; MIC ([11]; Streptococcus, 1020): 0.1 µg/mL (≈ 0.114 µM); MIC (Serratia marcescens): > 100 µg/mL; MIC ([14]; Klebsiella pneumoniae): 25 µg/mL (≈ 28.6 µM); MIC (Escherichia coli B; Escherichia coli): > 100 µg/mL; MIC [15]; 1501: 0.4 µg/mL (≈ 0.458 µM); MIC (Salmonella typhosa H901; [32]): > 100 µg/mL; MIC ([16]; Pseudomonas aeruginosa): > 100 µg/mL; MIC ([18]; ENTERITIDIS): > 100 µg/mL; MIC (Proteus vulgaris OX19): 50 µg/mL (≈ 57.2 µM)
5 | CCC1OC(=O)CC(OC(=O)Cc2ccccc2)C(C)C(OC2OC(C)C(O)C(N(C)C)C2O)C(C)CC(C)C(=O)C=CC(C)=CC1COC1OC(C)CC(OC)C1OC (stereo not drawn) [Example 10, 3-O-phenylacetyl-19-deformyl-4"-deoxydesmycosin] | – | – | 0.1 (≈ 0.118 µM) | ≤ 0.05 | – | – | – | 25 (≈ 29.5 µM) | – | > 100 | – | 0.1 (≈ 0.118 µM) | – | – | – | – | 0.1 (≈ 0.118 µM) | > 100 | > 100 | > 100 | MIC [1]: ≤ 0.05 µg/mL; MIC ([4]; Escherichia coli): > 100 µg/mL; MIC ([5]; Bacillus subtilis): 0.2 µg/mL (≈ 0.236 µM); MIC ([8]; Staphylococcus epidermidis): ≤ 0.05 µg/mL; MIC (Sarcina lutea ATCC 9341): ≤ 0.05 µg/mL; MIC ([9]; Micrococcus flavus): ≤ 0.05 µg/mL; MIC ([11]; Streptococcus, 1020): 0.4 µg/mL (≈ 0.473 µM); MIC (Serratia marcescens): > 100 µg/mL; MIC ([14]; Klebsiella pneumoniae): 12.5 µg/mL (≈ 14.8 µM); MIC (Escherichia coli B; Escherichia coli): > 100 µg/mL; MIC [15]; 1501: 3.1 µg/mL (≈ 3.66 µM); MIC (Salmonella typhosa H901; [32]): > 100 µg/mL; MIC ([16]; Pseudomonas aeruginosa): > 100 µg/mL; MIC ([18]; ENTERITIDIS): > 100 µg/mL; MIC (Proteus vulgaris OX19): 100 µg/mL (≈ 118 µM)
